Data taken from patent US7943551B2, “3-cyclopropyl-4-(3-thiobenzoyl) pyrazoles and their use as herbicides” (Bayer Cropscience AG, priority 2007, dated 2011).

How the values were obtained:
Format in all cases: in vivo
Matricaria inodora [1] = experiment: Post-emergence herbicidal action; conditions: Tripleurospermum inodorum, 80 g of a.i./ha, read-out: Herbicidal activity in % against MATIN
Method: (§1) Seeds of mono- and dicotyledonous harmful plants are placed in sandy loam in cardboard pots, covered with soil and grown in the greenhouse under good growth conditions. Two to three weeks after sowing, the test plants are treated at the three-leaf stage. The compounds according to the invention, which are formulated as wettable powders or as emulsion concentrates, are sprayed at an application rate of 600 to 800 l of water/ha (converted) in a dosage of 80 grams per hectare onto the surface of the green plant parts. The visual scoring of the damage to the harmful plants is carried out 3-4 weeks after the treatment. Here, the compounds of Nos. 1-39, 1-40, 1-1382 and 1-2091 show an activity of at least 90% against Echinochloa crus galli. The compounds of Nos. 1-3, 1-44 and 1-2091 shown an activity of at least 90% against Abutilon theophrasti. The compounds of Nos. 1-39, 1-40 and 1-1382 show an activity of at least 90% against Veronica persica. The compounds of Nos. 1-3, 1-38, 1-39, 1-1406 and 1-1407 show an activity of at least 90% against Stellaria media.
(§2) The comparative tests of Tables 1 to 24 below show the superiority of the compounds according to the invention over the compounds known from the prior art.
(§3) • ABUTH Abutilon theophrasti ALOMY Alopecurus myosuroides • AMARE Amaranthus retroflexus AVEFA Avena fatua • CHEAL Chenopodium album ECHCG Echinochloa crus galli • GALAP Galium aparine LOLMU Lolium multiflorum • MATIN Matricaria inodora PHBPU Pharbitis purpureum • POLCO Fallopia convolvulus STEME Stellaria media • VERPE Veronica persica VIOTR Viola tricolor • XANST Xanthium strumarium Crop Plants • GLXMA Glycine max (soybeans) TRZAS Triticum aestivum (wheat) • ZEAMX Zea mays (corn)

Stellaria media [2] = experiment: Post-emergence herbicidal action; conditions: Stellaria media, 80 g of a.i./ha, visual scoring 3-4 weeks after treatment, read-out: Herbicidal activity in % against STEME
Method: as §1, §2, §3

Veronica persica [3] = experiment: Post-emergence herbicidal action; conditions: read-out: Herbicidal activity in % against VERPE; for pest or weed control at 20 g/ha: 20 g of a.i./ha
Method: as §1, §2, §3

Xanthium strumarium [4] = experiment: Post-emergence herbicidal action; conditions: 80 g of a.i./ha, read-out: Herbicidal activity in % against XANST
Method: as §1, §2, §3

Galium aparine = experiment: Post-emergence herbicidal action
Method: as §1, with “The compounds according to the invention, which are formulated as wettable powders or as emulsion concentrates, are sprayed at an application rate of 600 to 800 l of water/ha (converted) in a dosage of 80 grams per hectare onto the surface of the green plant parts.” left out
as §2, §3

Amaranthus retroflexus = experiment: Pre-emergence herbicidal action
Excerpt: (§4) Seeds or rhizome pieces of mono- and dicotyledonous harmful plants are placed in sandy loam in pots of a diameter of 9 to 13 cm and covered with soil. The herbicides, formulated as emulsifiable concentrates or dusts, are applied to the surface of the covering soil in the form of aqueous dispersions or suspensions or emulsions at an application rate of 300 to 800 l of water/ha (converted), […] For further cultivation of the plants, the pots are then kept in a greenhouse under optimum conditions. The visual scoring of the damage to the harmful plants is carried out 3-4 weeks after the treatment. Here, the compounds of Nos. 1-3, 1-15, 1-44 and 1-1407 show an activity of at least 90% against Echinochloa crus galli. The compounds of Nos. 1-15, 1-45, 1-1407 and 1-1419 show an activity of at least 90% against Abutilon theophrasti. The compounds of Nos. 1-3, 1-45, 1-1406 and 1-1418 show an activity of at least 90% against Amaranthus retroflexus. The compounds of Nos. 1-44, 1-1406, 1-1407 and 1-1419 show an activity of at least 90% against Stellaria media.
as §2, §3

Stellaria media [5] = experiment: Pre-emergence herbicidal action; conditions: 80 g of a.i./ha
Excerpt: as §4, §2, §3

Veronica persica [6] = experiment: Pre-emergence herbicidal action; conditions: 80 g of a.i./ha
Excerpt: as §4, §2, §3

Fallopia convolvulus [7] = experiment: Pre-emergence herbicidal action; conditions: 320 g of a.i./ha
Excerpt: (§5) Seeds or rhizome pieces of mono- and dicotyledonous harmful plants are placed in sandy loam in pots of a diameter of 9 to 13 cm and covered with soil. The herbicides, formulated as emulsifiable concentrates or dusts, are applied to the surface of the covering soil in the form of aqueous dispersions or suspensions or emulsions at an application rate of 300 to 800 l of water/ha (converted), at a dosage of 320 grams per hectare. For further cultivation of the plants, the pots are then kept in a greenhouse under optimum conditions. The visual scoring of the damage to the harmful plants is carried out 3-4 weeks after the treatment. Here, the compounds of Nos. 1-3, 1-15, 1-44 and 1-1407 show an activity of at least 90% against Echinochloa crus galli. The compounds of Nos. 1-15, 1-45, 1-1407 and 1-1419 show an activity of at least 90% against Abutilon theophrasti. The compounds of Nos. 1-3, 1-45, 1-1406 and 1-1418 show an activity of at least 90% against Amaranthus retroflexus. The compounds of Nos. 1-44, 1-1406, 1-1407 and 1-1419 show an activity of at least 90% against Stellaria media.
as §2, §3

Pharbitis purpureum [8] = experiment: Pre-emergence herbicidal action; conditions: 320 g of a.i./ha
Excerpt: as §5, §2, §3

Xanthium strumarium [9] = experiment: Pre-emergence herbicidal action; conditions: 320 g of a.i./ha
Excerpt: as §5, §2, §3

Viola tricolor [10] = experiment: Post-emergence herbicidal action; conditions: read-out: Herbicidal activity in % against VIOTR; for pest or weed control at 20 g/ha: 20 g of a.i./ha
Method: as §1, §2, §3

[11] = system: Triticum aestivum (wheat); experiment: Post-emergence damage of crop plants; conditions: 20 g of a.i./ha, crop plant wheat
Method: as §1, with “The compounds according to the invention, which are formulated as wettable powders or as emulsion concentrates, are sprayed at an application rate of 600 to 800 l of water/ha (converted) in a dosage of 80 grams per hectare onto the surface of the green plant parts.” left out
as §2, §3

Zea mays (corn) = experiment: Post-emergence damage of crop plants; conditions: 20 g of a.i./ha, crop plant corn
Method: as §1, with “The compounds according to the invention, which are formulated as wettable powders or as emulsion concentrates, are sprayed at an application rate of 600 to 800 l of water/ha (converted) in a dosage of 80 grams per hectare onto the surface of the green plant parts.” left out
as §2, §3

Viola tricolor [12] = experiment: Pre-emergence herbicidal action; conditions: 320 g of a.i./ha
Excerpt: as §4, §2, §3

Abutilon theophrasti = experiment: Pre-emergence herbicidal action; conditions: 320 g of a.i./ha, visual scoring 3-4 weeks after treatment
Excerpt: as §5, §2, §3

Matricaria inodora [13] = experiment: Pre-emergence herbicidal action; conditions: Tripleurospermum inodorum, 320 g of a.i./ha, read-out: Herbicidal activity in % against MATIN
Excerpt: as §5, §2, §3

Fallopia convolvulus [14] = experiment: Post-emergence herbicidal action; conditions: 80 g of a.i./ha
Method: as §1, §2, §3

Pharbitis purpureum [15] = experiment: Post-emergence herbicidal action; conditions: 80 g of a.i./ha
Method: as §1, §2, §3

## Cn1nc(C2CC2)c(C(=O)c2ccc(Cl)c(S(=O)(=O)CC3CC3)c2Cl)c1O [drawing 57]
Matricaria inodora [1]
  pest or weed control at 80 g/ha: 50%
Stellaria media [2]
  pest or weed control at 80 g/ha: 100%
Veronica persica [3]; 80 g of a.i./ha, visual scoring 3-4 weeks after treatment
  pest or weed control at 80 g/ha: 90%
Xanthium strumarium [4]
  pest or weed control at 80 g/ha: 90%
Galium aparine; 80 g of a.i./ha
  Herbicidal activity in % against GALAP: 70%

## Cc1c(C(=O)c2c(C3CC3)nn(C)c2O)ccc(Cl)c1SCC1CC1 [drawing 43]
Amaranthus retroflexus; 80 g of a.i./ha
  Herbicidal activity in % against AMARE: 80%
Stellaria media [5]
  Herbicidal activity in % against STEME: 90%
Veronica persica [6]
  Herbicidal activity in % against VERPE: 70%

## Cc1c(C(=O)c2c(C3CC3)nn(C)c2O)ccc(S(C)(=O)=O)c1S(=O)(=O)CC1CC1 [drawing 15]
Fallopia convolvulus [7]
  Herbicidal activity in % against POLCO: 50%
Pharbitis purpureum [8]
  Herbicidal activity in % against PHBPU: 50%
Xanthium strumarium [9]
  Herbicidal activity in % against XANST: 60%

## COCCS(=O)(=O)c1c(S(C)(=O)=O)ccc(C(=O)c2c(C3CC3)nn(C)c2O)c1C [drawing 35]
Veronica persica [3]
  pest or weed control at 20 g/ha: 90%
Viola tricolor [10]
  pest or weed control at 20 g/ha: 70%
Galium aparine; 20 g of a.i./ha
  Herbicidal activity in % against GALAP: 50%
[11]
  Damage to TRZAS: 0
Zea mays (corn)
  Damage to ZEAMX: 0

## CCSc1c(S(C)(=O)=O)ccc(C(=O)c2c(C3CC3)nn(C)c2O)c1Cl [drawing 24]
Amaranthus retroflexus; 320 g of a.i./ha, visual scoring 3-4 weeks after treatment
  Herbicidal activity in % against AMARE: 90%
Viola tricolor [12]
  Herbicidal activity in % against VIOTR: 50%
Abutilon theophrasti
  Herbicidal activity in % against ABUTH: 70%
Fallopia convolvulus [7]
  Herbicidal activity in % against POLCO: 0%
Matricaria inodora [13]
  pest or weed control at 320 g/ha: 0%

## CSc1c(S(C)(=O)=O)ccc(C(=O)c2c(C3CC3)nn(C)c2O)c1C [drawing 32, reference compound]
Fallopia convolvulus [14]
  Herbicidal activity in % against POLCO: 50%
Pharbitis purpureum [15]
  Herbicidal activity in % against PHBPU: 40%

## CCS(=O)(=O)c1c(S(C)(=O)=O)ccc(C(=O)c2c(C3CC3)nn(C)c2O)c1C [drawing 36, reference compound]
Veronica persica [3]
  pest or weed control at 20 g/ha: 20%
Viola tricolor [10]
  pest or weed control at 20 g/ha: 20%
Galium aparine; 20 g of a.i./ha
  Herbicidal activity in % against GALAP: 20%
[11]
  Damage to TRZAS: 80
Zea mays (corn)
  Damage to ZEAMX: 10

## COCCS(=O)(=O)c1c(S(C)(=O)=O)ccc(C(=O)c2c(C3CC3)nn(C)c2O)c1C [drawing 13]
Fallopia convolvulus [7]
  Herbicidal activity in % against POLCO: 60%
Pharbitis purpureum [8]
  Herbicidal activity in % against PHBPU: 60%
Xanthium strumarium [9]
  Herbicidal activity in % against XANST: 70%

## CCS(=O)(=O)c1c(S(C)(=O)=O)ccc(C(=O)c2c(C3CC3)nn(C)c2O)c1C [drawing 14, reference compound]
Fallopia convolvulus [7]
  Herbicidal activity in % against POLCO: 20%
Pharbitis purpureum [8]
  Herbicidal activity in % against PHBPU: 20%
Xanthium strumarium [9]
  Herbicidal activity in % against XANST: 0%

## CCOCCSc1c(S(C)(=O)=O)ccc(C(=O)c2c(C3CC3)nn(C)c2O)c1C
Fallopia convolvulus [14]
  Herbicidal activity in % against POLCO: 70%
Pharbitis purpureum [15]
  Herbicidal activity in % against PHBPU: 60%
Viola tricolor [10]; 80 g of a.i./ha
  pest or weed control at 80 g/ha: 80%
